33 compounds from patent US20250319032A1, “PHARMACEUTICAL COMPOSITIONS OF RIBOCICLIB” (Novartis AG, priority 2024, published 2025) can be followed below.

The nature of the first data set: Nitrite content (ion chromatography; LC-FLD with DAN derivatisation; Griess test) in drug substance, intermediates, reagents, solvents, filters, excipients. It is filed as physicochemical. On the set-up: Nitrite content T0 (enhanced method): unit: ppm. The settings on record: IPA used in resin loading experiments. From the text:
The method of testing for the presence and/or total amount of nitrites that is used in the methods of the invention may be any method which allows for the detection and/or quantitation of nitrites in a composition. For example, the method may be the Griess test. The Griess test allows for the detection and analysis of nitrite by the formation of a red-pink colour upon treatment of a nitrite-containing sample with the Griess reagent. The Griess reagent consists of two components in an acidic solution: an aniline derivative and a coupling agent. The most common arrangements use sulfanilamide and N-(1-naphthyl)ethylenediamine. For example 0.2% N-(1-naphthyl)ethylenediamine dihydrochloride and 2% sulfanilamide in 5% phosphoric acid may be used as a Griess reagent. Other aniline derivatives that may be used in a Griess reagent include sulfanilic acid, nitroaniline, and p-aminoacetophenone.
The Griess test involves two subsequent reactions, as shown in the scheme below. When the aniline derivative (e.g., sulfanilamide) is added, the nitrite ion reacts with it in the Griess diazotization reaction to form a diazonium salt, which then reacts with N-(1-naphthyl)ethylenediamine in an azo-coupling reaction, forming a pink-red azo-dye. Using a spectrophotometer, the nitrite concentration can then be quantitatively detected.
Additionally purified water; e.g. Milli Q • 2.
• 10 mM KH2PO4 Weigh accurately about 1.361 g of KH2PO4 into a 1 L volumetric flask, dissolve it in approximately 950 mL of additionally purified water and adjust the pH to 8.0 (with 2.7 M NaOH). Make up to the mark with additionally purified water. • 0.62 M HCl Add a few millilitres (e.g. 20 mL) of additionally purified water to a 200 mL volumetric flask, add 10.280 mL of concentrated HCl, mix and make up to the mark with additionally purified water. • 2.7 M NaOH Weigh accurately about 1.092 g of NaOH pellets into a 10 mL volumetric flask and dissolve it in additionally purified water. Cool to room temperature and make up to the mark with the same solvent. • Reagent DAN Weigh accurately about 5 mg of 2,3-diaminophthalene into a 100 mL volumetric flask and dissolve it with the solvent (methanol/water 1:1 (v/v)). Dilute up to the mark and ensure visual full dissolution. Use an amberglass flask. • Mobile phase A Mix 950 mL of 10 mM KH2PO4 solution (pH=8) and add 50 mL methanol. • Mobile phase B Methanol. • Solvent Methanol/water 1:1 (v/v), e.g. mix 2000 mL of additionally purified water and 2000 mL methanol.
• Instrument: HPLC with FLR detector; e.g. Waters Arc or equivalent • Column: C18 50×4.6 mm, 2.5 μm, e.g. XBridge C18 2.5 μm, 4.650 mm or equivalent
• Notes It is recommended to wear additional protective equipment (face mask and gloves) during weighing. • It is recommended to wash the column with 50% methanol after the analysis (example of preparation: mix 500 mL methanol and 500 m1 of additionally purified water). • It is recommended to rinse the injector with solvent after each injection. • All glassware and tools should be rinsed with additionally purified water before use. It is not recommended to leave the solutions open for a longer time before measurement. • Blank solution 1 Transfer 1 mL of solvent into a HPLC vial and perform derivatization as described below. • Blank solution 2 Transfer 10 mL of solvent into a single use glass vial and mix it on a magnetic stirrer for 30 min. Transfer the solution into a 5 mL centrifuge tube and centrifuge for 10 min at 12000 rpm. […] Fill up to the mark with solvent and mix. • (Cnitrite≈0.0005 mg/mL) • Comparison solution Transfer 10 mL of nitrite stock solution into a 500 mL volumetric flask. • (2 parallels) Fill up to the mark with solvent and mix. • Transfer 1 mL solution into a HPLC vial and perform the derivatization as described below. • (Cnitrite≈100 ppb) • Sample solution Accurately weigh about 1000 mg of the sample into a glass vial for single use and add 10 mL of solvent.
A general note: The Griess reaction detects nitrite, a stable product of nitric oxide.
Take `CC(C)O` [IPA]: the “Nitrite in IPA” value is on record as 1.6 ppb.

Still in this data set, the particulars now being: component (DS or MgST) used in binary mixtures.
With `CN(C)C(=O)c1cc2cnc(Nc3ccc(N4CCNCC4)cn3)nc2n1C1CCCC1.O=C(O)CCC(=O)O` [DS (B699003AA)], the Nitrite content result is on record as “DS 0.1 ppm”.

Still in this data set, the particulars now being: drug substance manufactured at Menges, T0.
In the case of `CN(C)C(=O)c1cc2cnc(Nc3ccc(N4CCNCC4)cn3)nc2n1C1CCCC1.O=C(O)CCC(=O)O` [Batch B711867], the “Nitrite content T0 (enhanced method)” value is listed as less than 0.1.

`CN(C)C(=O)c1cc2cnc(Nc3ccc(N4CCNCC4)cn3)nc2n1C1CCCC1.O=C(O)CCC(=O)O` [Batch B692472]: the “Nitrite content T0 (enhanced method)” value is 0.1. For `CN(C)C(=O)c1cc2cnc(Nc3ccc(N4CCNCC4)cn3)nc2n1C1CCCC1.O=C(O)CCC(=O)O` [Batch B695104], the “Nitrite content T0 (enhanced method)” value amounted to 0.5. On to `CN(C)C(=O)c1cc2cnc(Nc3ccc(N4CCNCC4)cn3)nc2n1C1CCCC1.O=C(O)CCC(=O)O` [Batch B695106], for which the “Nitrite content T0 (enhanced method)” value was 0.1.

Staying with this data set, now noted: ribociclib base (LEE011 B10), ion chromatography.
Regarding `CN(C)C(=O)c1cc2cnc(Nc3ccc(N4CCNCC4)cn3)nc2n1C1CCCC1` [Batch B687416], the “Nitrite [ppm] LOD (1 ppm)” value is reported as “<LOD”.

Staying with this data set, now noted: ribociclib succinate drug substance batches at release.
With `CN(C)C(=O)c1cc2cnc(Nc3ccc(N4CCNCC4)cn3)nc2n1C1CCCC1.O=C(O)CCC(=O)O` [Batch B698298], the “Nitrite NAP method (ppm)” value is listed as 0.2 ppm and the “Nitrite NAT enhanced sample prep. (ppm)” value was less than 0.1 ppm.

Take `CN(C)C(=O)c1cc2cnc(Nc3ccc(N4CCNCC4)cn3)nc2n1C1CCCC1.O=C(O)CCC(=O)O` [Batch B696588]: the “Nitrite NAP method (ppm)” value was 0.2 ppm and the “Nitrite NAT enhanced sample prep. (ppm)” value amounted to 0.1 ppm. On the same counts, the results for `CN(C)C(=O)c1cc2cnc(Nc3ccc(N4CCNCC4)cn3)nc2n1C1CCCC1.O=C(O)CCC(=O)O` [Batch B698293] are 0.3 ppm and 0.4 ppm. For `CN(C)C(=O)c1cc2cnc(Nc3ccc(N4CCNCC4)cn3)nc2n1C1CCCC1.O=C(O)CCC(=O)O` [Batch B709050], the “Nitrite NAP method (ppm)” value is given as 0.2 ppm and the “Nitrite NAT enhanced sample prep. (ppm)” value came to 0.1 ppm. The like results for `CN(C)C(=O)c1cc2cnc(Nc3ccc(N4CCNCC4)cn3)nc2n1C1CCCC1.O=C(O)CCC(=O)O` [Batch B707657] were, in that order, 0.2 ppm and 0.1 ppm. On the same counts, the results for `CN(C)C(=O)c1cc2cnc(Nc3ccc(N4CCNCC4)cn3)nc2n1C1CCCC1.O=C(O)CCC(=O)O` [Batch B709051] are 0.2 ppm and less than 0.1 ppm.

`CN(C)C(=O)c1cc2cnc(Nc3ccc(N4CCNCC4)cn3)nc2n1C1CCCC1.O=C(O)CCC(=O)O` [Batch B709049]: the “Nitrite NAP method (ppm)” value stood at 0.2 ppm and the “Nitrite NAT enhanced sample prep. (ppm)” value is on record as less than 0.1 ppm.

Regarding `CN(C)C(=O)c1cc2cnc(Nc3ccc(N4CCNCC4)cn3)nc2n1C1CCCC1.O=C(O)CCC(=O)O` [Batch B710666], the “Nitrite NAP method (ppm)” value was 0.5 ppm and the “Nitrite NAT enhanced sample prep. (ppm)” value was less than 0.1 ppm. The like results for `CN(C)C(=O)c1cc2cnc(Nc3ccc(N4CCNCC4)cn3)nc2n1C1CCCC1.O=C(O)CCC(=O)O` [Batch B709938] were, in that order, 0.2 ppm and less than 0.1 ppm. The like results for `CN(C)C(=O)c1cc2cnc(Nc3ccc(N4CCNCC4)cn3)nc2n1C1CCCC1.O=C(O)CCC(=O)O` [Batch B711439] were, in that order, 0.1 ppm and less than 0.1 ppm. Turning to `CN(C)C(=O)c1cc2cnc(Nc3ccc(N4CCNCC4)cn3)nc2n1C1CCCC1.O=C(O)CCC(=O)O` [Batch B710668], the “Nitrite NAP method (ppm)” value is recorded as 0.2 ppm and the “Nitrite NAT enhanced sample prep. (ppm)” value amounted to 0.1 ppm. In the case of `CN(C)C(=O)c1cc2cnc(Nc3ccc(N4CCNCC4)cn3)nc2n1C1CCCC1.O=C(O)CCC(=O)O` [Batch B711867], the “Nitrite NAP method (ppm)” value came out at 0.1 ppm and the “Nitrite NAT enhanced sample prep. (ppm)” value stood at 0.1 ppm.

`CN(C)C(=O)c1cc2cnc(Nc3ccc(N4CCNCC4)cn3)nc2n1C1CCCC1.O=C(O)CCC(=O)O` [Batch B711868]: the “Nitrite NAT enhanced sample prep. (ppm)” value is reported as less than 0.1 ppm.

`CN(C)C(=O)c1cc2cnc(Nc3ccc(N4CCNCC4)cn3)nc2n1C1CCCC1.O=C(O)CCC(=O)O` [Batch B709941]: the “Nitrite NAP method (ppm)” value was determined as 0.1 ppm and the “Nitrite NAT enhanced sample prep. (ppm)” value was 0.1 ppm. With `CN(C)C(=O)c1cc2cnc(Nc3ccc(N4CCNCC4)cn3)nc2n1C1CCCC1.O=C(O)CCC(=O)O` [Batch B709939], the “Nitrite NAP method (ppm)” value amounted to 0.2 ppm and the “Nitrite NAT enhanced sample prep. (ppm)” value was less than 0.1 ppm. The like results for `CN(C)C(=O)c1cc2cnc(Nc3ccc(N4CCNCC4)cn3)nc2n1C1CCCC1.O=C(O)CCC(=O)O` [Batch B692472] were, in that order, 0.2 ppm and 0.1 ppm.

As for `CN(C)C(=O)c1cc2cnc(Nc3ccc(N4CCNCC4)cn3)nc2n1C1CCCC1.O=C(O)CCC(=O)O` [Batch B711440], the “Nitrite NAP method (ppm)” value worked out at 0.1 ppm and the “Nitrite NAT enhanced sample prep. (ppm)” value is 0.9 ppm. With `CN(C)C(=O)c1cc2cnc(Nc3ccc(N4CCNCC4)cn3)nc2n1C1CCCC1.O=C(O)CCC(=O)O` [Batch B709940], the “Nitrite NAP method (ppm)” value was 0.2 ppm and the “Nitrite NAT enhanced sample prep. (ppm)” value is on record as less than 0.1 ppm.

Turning to `CN(C)C(=O)c1cc2cnc(Nc3ccc(N4CCNCC4)cn3)nc2n1C1CCCC1.O=C(O)CCC(=O)O` [Batch B698296], the “Nitrite NAP method (ppm)” value stood at 0.4 ppm and the “Nitrite NAT enhanced sample prep. (ppm)” value came out at 0.3 ppm. For `CN(C)C(=O)c1cc2cnc(Nc3ccc(N4CCNCC4)cn3)nc2n1C1CCCC1.O=C(O)CCC(=O)O` [Batch B698297], the “Nitrite NAP method (ppm)” value came out at 0.2 ppm and the “Nitrite NAT enhanced sample prep. (ppm)” value was determined as 0.1 ppm. For `CN(C)C(=O)c1cc2cnc(Nc3ccc(N4CCNCC4)cn3)nc2n1C1CCCC1.O=C(O)CCC(=O)O` [Batch B696590], the “Nitrite NAP method (ppm)” value was found to be 0.3 ppm and the “Nitrite NAT enhanced sample prep. (ppm)” value stood at 0.4 ppm. Turning to `CN(C)C(=O)c1cc2cnc(Nc3ccc(N4CCNCC4)cn3)nc2n1C1CCCC1.O=C(O)CCC(=O)O` [Batch B695104], the “Nitrite NAP method (ppm)” value is reported as 0.3 ppm and the “Nitrite NAT enhanced sample prep. (ppm)” value is 0.5 ppm.

For `CN(C)C(=O)c1cc2cnc(Nc3ccc(N4CCNCC4)cn3)nc2n1C1CCCC1.O=C(O)CCC(=O)O` [Batch B695106], the “Nitrite NAP method (ppm)” value amounted to 0.2 ppm and the “Nitrite NAT enhanced sample prep. (ppm)” value worked out at 0.1 ppm. `CN(C)C(=O)c1cc2cnc(Nc3ccc(N4CCNCC4)cn3)nc2n1C1CCCC1.O=C(O)CCC(=O)O` [Batch B711866]: the “Nitrite NAP method (ppm)” value was determined as 0.2 ppm and the “Nitrite NAT enhanced sample prep. (ppm)” value is reported as less than 0.1 ppm.

The same data set, now with this note: ribociclib succinate drug substance batches at release; manufacturer Raybow - DS04.
As for `CN(C)C(=O)c1cc2cnc(Nc3ccc(N4CCNCC4)cn3)nc2n1C1CCCC1.O=C(O)CCC(=O)O` [RIBOCICLIB SUCCINATE 833268R015], the “Nitrite NAT enhanced sample prep. (ppm)” value is reported as less than 0.1 ppm. Still for that read-out and setting: then `CN(C)C(=O)c1cc2cnc(Nc3ccc(N4CCNCC4)cn3)nc2n1C1CCCC1.O=C(O)CCC(=O)O` [RIBOCICLIB SUCCINATE 833268R014], with less than 0.1 ppm. Take `CN(C)C(=O)c1cc2cnc(Nc3ccc(N4CCNCC4)cn3)nc2n1C1CCCC1.O=C(O)CCC(=O)O` [RIBOCICLIB SUCCINATE 833268A193]: the “Nitrite NAT enhanced sample prep. (ppm)” value was 0.1 ppm. The same measure, in the same setting: then `CN(C)C(=O)c1cc2cnc(Nc3ccc(N4CCNCC4)cn3)nc2n1C1CCCC1.O=C(O)CCC(=O)O` [RIBOCICLIB SUCCINATE 833268R016], with less than 0.1 ppm; and `CN(C)C(=O)c1cc2cnc(Nc3ccc(N4CCNCC4)cn3)nc2n1C1CCCC1.O=C(O)CCC(=O)O` [RIBOCICLIB SUCCINATE 833268R011], with less than 0.1 ppm; and `CN(C)C(=O)c1cc2cnc(Nc3ccc(N4CCNCC4)cn3)nc2n1C1CCCC1.O=C(O)CCC(=O)O` [RIBOCICLIB SUCCINATE 833268R013], with less than 0.1 ppm.

Still in this data set, the particulars now being: ribociclib succinate drug substance batches at release; manufacturer Raybow - DS05.
For the compound `CN(C)C(=O)c1cc2cnc(Nc3ccc(N4CCNCC4)cn3)nc2n1C1CCCC1.O=C(O)CCC(=O)O` [RIBOCICLIB SUCCINATE 833268A193], the “Nitrite NAT enhanced sample prep. (ppm)” value is given as 0.1 ppm.
